# In patent publication US7642269B2, “Pyrrolo[3,2-B]pyridine derivatives and processes for the preparation thereof” (Yuhan Corporation, priority 2005, dated 2010):
# Structures can show the parent of a compound that is named as a salt.
# Molecular target: T1, H^+/K^+-ATPase (Sus scrofa, UniProt P19156)
# T1 construct: used as an enzyme source of the in vitro enzyme reaction assay of proton pump; from tissue; host or cells: hog gastric fundic mucosa (membrane vesicles, lyophilized)
# Assay: Inhibitory effects on proton pump (H^+/K^+-ATPase) activity, hog gastric vesicles
# Format: biochemical
# Settings: K^+ stimulated H^+/K^+-ATPase activity, hog gastric vesicle, Pi measured at 620 nm
# Procedure: Preparation of Gastric Proton Pump Vesicles
# The hog fundic regions containing parietal and peptic cells were scraped with slide-glass. The collected cells were suspended in 10 ml of 0.25M sucrose buffer and homogenized using a tight-fitting Teflon-glass homogenizer. The homogenate was centrifuged for 35 min at 8,000 rpm and the pellet was discarded. The supernatant was further centrifuged for 75 min at 25,000 rpm. The resulting pellets were re-suspended in the sucrose buffer (10 ml), and then the suspension was laid onto discontinuous density gradients consisting of 0.25M sucrose buffer and isolation medium containing 9% Ficoll (w/w). After being centrifuged for 3 hours and 15 minutes at 100,000×g, the material at the interface of sucrose buffer and Ficoll solution was collected and then centrifuged for 40 minutes at 100,000×g. The resulting pellets were re-suspended in 1 ml of 5 mM Hepes/Tris buffer (pH 6.1). This material was lyophilized and stored at −70° C. and used as an enzyme source of the in vitro enzyme reaction assay of proton pump.
# 1-2. Measurement of Inhibitory Effects on Proton Pump (H+/K+-ATPase) activity
# The inhibitory effects of the compounds of the present invention against proton pump activity were evaluated in 96-well plate. In this assay, the K^+ specific H^+/K^+-ATPase activity was calculated based on the difference between the activity of H^+/K^+-ATPase activity with K^+ and without K^+ ion. In 96-well plate, 1% dimethylsulfoxide (DMSO) in buffer was added to negative and positive control groups and the diluted compounds of the present invention in buffer were added to test group. All assays were performed in 100 μl reaction volume at room temperature, and the hog gastric vesicle was kept in ice before use. At the beginning of the reaction, 10 μl of reaction buffer containing 1% DMSO was added to the negative and positive control groups and to each concentration of compounds in the test group. Then lyophilized vesicle in 5 mM Pipes/Tris buffer (pH 6.1) was pre-incubated in the presence of various concentrations of test compounds. After a 5 minute incubation, negative and positive buffers were respectively added to the previous reaction mixture. As the substrate, ATP was added to the reaction buffer, and incubated for 30 minutes at 37° C. Enzymatic activity was stopped by the addition of colorimetric reagent (2× malachite green, 1× ammonium molybdate, 1× polyvinyl alcohol, 2× H2O) and the amount of mono phosphate (Pi) in the reaction was measured at 620 nm using the micro plate reader (Genios Pro, TECAN). The difference between the Pi production with K^+ and without K^+ is taken as K^+ stimulated H^+/K^+-ATPase activity.
# T1 sequence (P19156 2-1034 limits assumed): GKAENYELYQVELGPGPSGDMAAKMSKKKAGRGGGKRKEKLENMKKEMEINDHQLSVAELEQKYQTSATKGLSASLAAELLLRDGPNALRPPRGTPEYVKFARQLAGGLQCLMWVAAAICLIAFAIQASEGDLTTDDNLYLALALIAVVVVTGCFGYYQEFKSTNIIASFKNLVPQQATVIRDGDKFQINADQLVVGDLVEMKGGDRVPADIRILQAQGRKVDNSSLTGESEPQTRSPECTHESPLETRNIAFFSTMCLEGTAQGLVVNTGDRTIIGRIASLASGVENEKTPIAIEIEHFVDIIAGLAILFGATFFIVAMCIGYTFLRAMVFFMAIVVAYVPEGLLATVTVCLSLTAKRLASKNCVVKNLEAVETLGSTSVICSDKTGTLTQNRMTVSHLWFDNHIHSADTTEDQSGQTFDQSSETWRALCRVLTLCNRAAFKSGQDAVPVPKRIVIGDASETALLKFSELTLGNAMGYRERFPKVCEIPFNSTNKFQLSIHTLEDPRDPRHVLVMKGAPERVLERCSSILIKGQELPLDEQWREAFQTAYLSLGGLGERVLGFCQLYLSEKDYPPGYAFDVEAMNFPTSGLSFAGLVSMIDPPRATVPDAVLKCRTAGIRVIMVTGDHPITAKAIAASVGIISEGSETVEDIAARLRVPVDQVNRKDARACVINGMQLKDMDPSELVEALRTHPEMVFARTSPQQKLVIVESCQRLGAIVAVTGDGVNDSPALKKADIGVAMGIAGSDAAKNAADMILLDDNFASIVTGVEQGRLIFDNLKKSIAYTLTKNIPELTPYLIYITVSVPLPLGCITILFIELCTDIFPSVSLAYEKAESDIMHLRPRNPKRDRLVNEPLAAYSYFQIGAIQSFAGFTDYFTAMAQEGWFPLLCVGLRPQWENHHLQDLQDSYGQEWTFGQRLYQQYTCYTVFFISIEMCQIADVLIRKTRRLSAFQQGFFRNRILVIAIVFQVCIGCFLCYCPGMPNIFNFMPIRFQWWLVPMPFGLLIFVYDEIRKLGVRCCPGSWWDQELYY
# T1 sequence (P18434 whole entry partner): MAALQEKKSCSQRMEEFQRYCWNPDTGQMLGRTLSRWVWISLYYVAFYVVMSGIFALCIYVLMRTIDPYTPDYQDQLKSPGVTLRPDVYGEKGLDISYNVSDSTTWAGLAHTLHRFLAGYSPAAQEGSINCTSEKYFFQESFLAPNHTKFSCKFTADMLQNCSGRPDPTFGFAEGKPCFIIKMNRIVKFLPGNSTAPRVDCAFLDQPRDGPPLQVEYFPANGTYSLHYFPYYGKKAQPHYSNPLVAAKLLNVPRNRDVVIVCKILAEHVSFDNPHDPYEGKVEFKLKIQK
row,SMILES,IC50 [nM]
1,"CCn1c(C)c(C)c2nccc(N3CCc4ccccc4C3)c21 [Example 13, 1-ethyl-7-(1,2,3,4-tetrahydroisoquinolin-2-yl)-2,3-dimethyl-1H-pyrrolo[3,2-b]pyridine hydrochloride]",800
2,"C=COCCn1c(C)c(C)c2nccc(OCc3ccc(F)cc3)c21 [Example 38, 7-(4-fluorobenzyloxy)-2,3-dimethyl-1-(2-vinyloxyethyl)-1H-pyrrolo[3,2-b]pyridine hydrochloride]",1310
3,"Cc1c(C)n(Cc2ccccc2F)c2c(OCc3ccc(Br)cc3)ccnc12 [Example 225, 7-(4-bromobenzyloxy)-1-(2-fluorobenzyl)-2,3-dimethyl-1H-pyrrolo[3,2-b]pyridine hydrochloride]",620
4,"CC(=O)OCCn1c(C)c(C)c2nccc(OCc3ccc(Cl)cc3)c21 [Example 85, 1-(2-acetoxyethyl)-7-(4-chlorobenzyloxy)-2,3-dimethyl-1H-pyrrolo[3,2-b]pyridine hydrochloride]",170
5,"Cc1c(C)n(Cc2ccc3ccccc3c2)c2c(N3CCc4ccccc4C3)ccnc12 [Example 2, 1-(2-naphthylmethyl)-7-(1,2,3,4-tetrahydroisoquinolin-2-yl)-2,3-dimethyl-1H-pyrrolo[3,2-b]pyridine hydrochloride]",1060
6,"Cc1c(C)n(CC2CC2)c2c(NCc3ccc(F)cc3)ccnc12 [Example 255, N-(1-cyclopropylmethyl-2,3-dimethyl-1H-pyrrolo[3,2-b]pyridin-7-yl)-4-fluorobenzylamine hydrochloride]",550
7,"COc1ccc(Cn2c(C)c(C)c3nccc(N4CCc5ccccc5C4)c32)cc1 [Example 10, 1-(4-methoxybenzyl)-7-(1,2,3,4-tetrahydroisoquinolin-2-yl)-2,3-dimethyl-1H-pyrrolo[3,2-b]pyridine hydrochloride]",690
8,"Cc1ccc(Cn2c(C)c(C)c3nccc(OCc4ccc(C(F)(F)F)cc4)c32)cc1 [Example 200, 2,3-dimethyl-1-(4-methylbenzyl)-7-(4-trifluoromethylbenzyloxy)-1H-pyrrolo[3,2-b]pyridine hydrochloride]",600
9,"C=CCn1c(C)c(C)c2nccc(OCc3ccccc3OCC)c21 [Example 164, 1-allyl-7-(2-ethoxybenzyloxy)-2,3-dimethyl-1H-pyrrolo[3,2-b]pyridine hydrochloride]",3000
10,"Cc1c(C)n(CC2CCC2)c2c(OCc3cc(F)cc(F)c3)ccnc12 [Example 179, 1-cyclobutylmethyl-7-(3,5-difluorobenzyloxy)-2,3-dimethyl-1H-pyrrolo[3,2-b]pyridine hydrochloride]",570
11,"COCCn1c(C)c(C)c2nccc(OCc3cccc(C)c3)c21 [Example 157, 1-(2-methoxyethyl)-2,3-dimethyl-7-(3-methylbenzyloxy)-1H-pyrrolo[3,2-b]pyridine hydrochloride]",570
12,"COCCn1c(C)c(C)c2nccc(NCc3ccc(F)cc3)c21 [Example 256, N-[1-(2-methoxyethyl)-2,3-dimethyl-1H-pyrrolo[3,2-b]pyridin-7-yl]-4-fluorobenzylamine hydrochloride]",2080
13,"C=CCn1c(C)c(C)c2nccc(OCc3ccc4c(c3)OCO4)c21 [Example 98, 1-allyl-7-(benzo[1,3]dioxol-5-ylmethoxy)-2,3-dimethyl-1H-pyrrolo[3,2-b]pyridine hydrochloride]",620
14,"Cc1c(C)n(Cc2ccc(Cl)cc2)c2c(OCc3ccc(Cl)cc3)ccnc12 [Example 88, 7-(4-chlorobenzyloxy)-1-(4-chlorobenzyl)-2,3-dimethyl-1H-pyrrolo[3,2-b]pyridine hydrochloride]",670
15,"Cc1c(C)n(Cc2ccccc2)c2c(NCc3ccc(F)cc3)ccnc12 [Example 261, N-(1-benzyl-2,3-dimethyl-1H-pyrrolo[3,2-b]pyridin-7-yl)-4-fluorobenzylamine hydrochloride]",2060
16,"Cc1cccc(COc2ccnc3c(C)c(C)n(Cc4ccc(Cl)cc4)c23)c1 [Example 147, 1-(4-chlorobenzyl)-2,3-dimethyl-7-(3-methylbenzyloxy)-1H-pyrrolo[3,2-b]pyridine hydrochloride]",3450
17,"Cc1ccc(Cn2c(C)c(C)c3nccc(NCc4ccc(F)cc4)c32)cc1 [Example 263, N-[1-(4-methylbenzyl)-2,3-dimethyl-1H-pyrrolo[3,2-b]pyridin-7-yl]-4-fluorobenzylamine hydrochloride]",1450

# The remaining molecules from weak to strong by IC50, led by results:
row,IC50 [nM],SMILES
1,540,"COCn1c(C)c(C)c2nccc(OCc3ccc(Cl)cc3Cl)c21 [Example 134, 7-(2,4-dichlorobenzyloxy)-1-methoxymethyl-2,3-dimethyl-1H-pyrrolo[3,2-b]pyridine hydrochloride]"
2,450,"Cc1c(C)n(Cc2cccc(Cl)c2)c2c(OCc3ccc(Br)cc3)ccnc12 [Example 226, 7-(4-bromobenzyloxy)-1-(3-chlorobenzyl)-2,3-dimethyl-1H-pyrrolo[3,2-b]pyridine hydrochloride]"
3,330,"Cc1c(C)n(Cc2ccccc2F)c2c(N3CCc4ccccc4C3)ccnc12 [Example 9, 1-(2-fluorobenzyl)-7-(1,2,3,4-tetrahydroisoquinolin-2-yl)-2,3-dimethyl-1H-pyrrolo[3,2-b]pyridine hydrochloride]"
4,320,"COCCn1c(C)c(C)c2nccc(N3CCc4ccccc4C3)c21 [Example 5, 1-(2-methoxyethyl)-7-(1,2,3,4-tetrahydroisoquinolin-2-yl)-2,3-dimethyl-1H-pyrrolo[3,2-b]pyridine hydrochloride]"
5,320,"Cc1cccc(COc2ccnc3c(C)c(C)n(Cc4ccc(F)cc4)c23)c1 [Example 158, 1-(4-fluorobenzyl)-2,3-dimethyl-7-(3-methylbenzyloxy)-1H-pyrrolo[3,2-b]pyridine hydrochloride]"
6,270,"COC(=O)CCn1c(C)c(C)c2nccc(OCc3ccc(F)cc3)c21 [Example 57, 1-[2-(methoxycarbonyl)ethyl]-7-(4-fluorobenzyloxy)-2,3-dimethyl-1H-pyrrolo[3,2-b]pyridine hydrochloride]"
7,150,"Cc1c(C)n(Cc2cccc(F)c2)c2c(OCc3ccc4c(c3)OCO4)ccnc12 [Example 116, 7-(benzo[1,3]dioxol-5-ylmethoxy)-1-(3-fluorobenzyl)-2,3-dimethyl-1H-pyrrolo[3,2-b]pyridine hydrochloride]"
8,120,"Cc1c(C)n(CC(C)C)c2c(OCc3ccc4c(c3)OCO4)ccnc12 [Example 120, 7-(benzo[1,3]dioxol-5-ylmethoxy)-1-isobutyl-2,3-dimethyl-1H-pyrrolo[3,2-b]pyridine hydrochloride]"
9,60,"Cc1c(C)n(Cc2cccc(F)c2)c2c(OCc3ccc(Br)cc3)ccnc12 [Example 222, 7-(4-bromobenzyloxy)-1-(3-fluorobenzyl)-2,3-dimethyl-1H-pyrrolo[3,2-b]pyridine hydrochloride]"
10,60,"COCCn1c(C)c(C)c2nccc(OCc3ccc(F)cc3)c21 [Example 123, 7-(4-fluorobenzyloxy)-1-(2-methoxyethyl)-2,3-dimethyl-1H-pyrrolo[3,2-b]pyridine methanesulfonate]"
11,50,"COCCn1c(C)c(C)c2nccc(OCc3ccc(F)cc3)c21 [Example 126, 7-(4-fluorobenzyloxy)-1-(2-methoxyethyl)-2,3-dimethyl-1H-pyrrolo[3,2-b]pyridine nitrate]"
12,50,"COc1cccc(Cn2c(C)c(C)c3nccc(OCc4ccc(Cl)cc4)c32)c1 [Example 92, 7-(4-chlorobenzyloxy)-1-(3-methoxybenzyl)-2,3-dimethyl-1H-pyrrolo[3,2-b]pyridine hydrochloride]"
13,50,"COCCn1c(C)c(C)c2nccc(OCc3ccc(F)cc3)c21 [Example 128, 7-(4-fluorobenzyloxy)-1-(2-methoxyethyl)-2,3-dimethyl-1H-pyrrolo[3,2-b]pyridine maleate]"
14,50,"COCCn1c(C)c(C)c2nccc(OCc3ccc(F)cc3)c21 [Example 132, 7-(4-fluorobenzyloxy)-1-(2-methoxyethyl)-2,3-dimethyl-1H-pyrrolo[3,2-b]pyridine oxalate]"
15,40,"COCCn1c(C)c(C)c2nccc(OCc3ccc(F)cc3)c21 [Example 127, 7-(4-fluorobenzyloxy)-1-(2-methoxyethyl)-2,3-dimethyl-1H-pyrrolo[3,2-b]pyridine sulfate]"
16,40,"COCCn1c(C)c(C)c2nccc(OCc3ccc(F)cc3)c21 [Example 130, 7-(4-fluorobenzyloxy)-1-(2-methoxyethyl)-2,3-dimethyl-1H-pyrrolo[3,2-b]pyridine malonate]"
